Tests used:
[1] = test system: Boll Weevil; assay: Boll Weevil Test; assay type: in vivo, Anthonomus grandis (Coleoptera); settings: 48 h
From the text: The procedure is identical to that employed for the Mexican bean beetle and the Southern armyworm, except that 10 adult boll weevils are placed on cotton leaves that have been dipped into formulations of the test compounds. The same rating scale is used.

[2] = test system: Alfalfa Weevil Larvae; assay: Field trial, stomach poison test; assay type: in vivo
How it was run: (§1)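 Treated foliage (dipped, or sprayed at 10 psi, then dried) is offered to counted insects in dishes. Scoring of mortality uses a 0–9 scale at three time points up to 72 h.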

[3] = test system: Aphids - Apple; assay: Field trial, stomach poison test; assay type: in vivo
How it was run: as §1

[4] = test system: Aphids - Sour Gum; assay: Field trial, stomach poison test; assay type: in vivo
How it was run: as §1

[5] = test system: Aphids - Tulip Tree; assay: Field trial, stomach poison test; assay type: in vivo
How it was run: as §1

[6] = test system: Asparagus Beetles Adults; assay: Field trial, stomach poison test; assay type: in vivo
How it was run: as §1

[7] = test system: Meadow Spittlebug; assay: Field trial, stomach poison test; assay type: in vivo
How it was run: as §1

[8] = test system: Potato Flea Beetle Adults; assay: Field trial, stomach poison test; assay type: in vivo
How it was run: as §1

[9] = test system: Southern Corn Rootworm Adults; assay: Field trial, stomach poison test; assay type: in vivo; design: key: mortality rating on a 0 to 9 scale
How it was run: as §1

[10] = test system: Striped Cucumber Beetle Adults; assay: Field trial, stomach poison test; assay type: in vivo; design: key: mortality rating on a 0 to 9 scale
How it was run: as §1

[11] = test system: Bean Leaf Beetle; assay: Field trial, contact poison test; assay type: in vivo
How it was run: (§2)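 Each infested plant sits in a water-filled bottle to prevent wilting, and the test compound is then atomized onto it at 10 psi at various concentrations. Falling dead insects are collected, and mortality is rated 0 (0-10%) to 9 (91-100%) at up to 72 h.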

[12] = test system: Red-Legged Grasshopper Adults; assay: Field trial, contact poison test; assay type: in vivo
How it was run: as §2

[13] = test system: Southern Corn Rootworm Adults; assay: Field trial, contact poison test; assay type: in vivo
How it was run: as §2

[14] = test system: Alfalfa Weevil Larvae; assay: Field trial, topical application; assay type: in vivo
Protocol: The results are read at 24, 48, and 72 hours when applicable. The rating scale is 0 to 9 where 0 = 0-10 percent and 9 = 91-100 percent mortality.
In a variation of the above test, 1 microliter of a test solution containing a predetermined number of micrograms of benzimidazole was applied directly to larvae or adult insects.
Using the above methods, field trials were carried out against species of 5 orders of insects. The results, which are summarized in the following tables, give the average mortality for the particular insect with a given benzimidazole for each concentration employed. […] These tables contain all results obtained during the summer trials.

[15] = test system: Confused Flour Beetle; assay: Field trial (first summer), topical; assay type: in vivo
How it was run: (§3)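 Field trial from the first summer in which 1 µl of test solution holding a set number of micrograms of benzimidazole was applied topically to larvae or adult insects. Mortality at a given route and concentration was scored on a 0–9 scale.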

[16] = test system: Picnic Beetle; assay: Field trial (first summer), topical; assay type: in vivo; settings: .078125 μg/μl
How it was run: as §3

[17] = test system: Two-spotted Spider Mite; assay: Two-spotted Spider Mite test; assay type: in vivo, Tetranychus urticae (Acarina); settings: 48 h
Protocol: The procedure in this test is the same as that in the previous aphid test, except that about 100 two-spotted spider mites from a stock colony raised on squash plants are transferred to a cut squash cotyledon. The mortality is estimated 48 hours after spraying. The same rating scale is used.

[18] = test system: Oriental Cockroach; assay: Oriental Roach Test; assay type: in vivo, Blatta orientalis (Orthoptera); settings: 500 ppm, 24 h
How it was run: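 Ten late-instar (3-4 month) nymphs per cage, held at 70°-80° F., sprayed with 5 ml of insecticide formulation at a specified amount. Cockroaches kept unfed and unwatered; mortality counted 24 hours post-spray, with insects staying on the cage bottom after light shaking scored dead.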

O=[N+]([O-])c1cc(C(F)(F)F)cc2nc(C(F)(F)F)[nH]c12 [A, 2,6-bis(trifluoromethyl)-4-nitrobenzimidazole]
mortality rating ([1]; 5 ppm): 7.5 | mortality rating ([1]; 10 ppm): 6.7 | mortality rating ([1]; 25 ppm): 8.8 | mortality rating ([1]; 50 ppm): 8.5 | average mortality rating ([2]; 125 ppm): 7 | average mortality rating ([2]; 250 ppm): 7 | average mortality rating ([2]; 500 ppm): 7 | average mortality rating ([3]; 25 ppm): 1 | average mortality rating ([3]; 50 ppm): 4 | average mortality rating ([3]; 100 ppm): 4 | average mortality rating ([4]; 25 ppm): 7 | average mortality rating ([4]; 50 ppm): 9 (91-100 percent mortality) | average mortality rating ([4]; 100 ppm): 9 (91-100 percent mortality) | average mortality rating ([5]; 25 ppm): 8 | average mortality rating ([5]; 50 ppm): 5 | average mortality rating ([5]; 100 ppm): 8 | average mortality rating ([6]; 5 ppm): 0 (0-10 percent) | average mortality rating ([6]; 10 ppm): 3 | average mortality rating ([6]; 25 ppm): 9 (91-100 percent mortality) | average mortality rating ([7]; 10 ppm): 2 | average mortality rating ([7]; 25 ppm): 0 (0-10 percent) | average mortality rating ([7]; 50 ppm): 1 | average mortality rating ([8]; 10 ppm): 9 (91-100 percent mortality) | average mortality rating ([8]; 25 ppm): 6 | average mortality rating ([8]; 50 ppm): 9 (91-100 percent mortality) | average mortality rating ([8]; 100 ppm): 9 (91-100 percent mortality) | average mortality rating ([9]; 25 ppm): 4 | average mortality rating ([9]; 50 ppm): 6 | average mortality rating ([9]; 100 ppm): 7 | average mortality rating ([10]; 10 ppm): 1 | average mortality rating ([10]; 25 ppm): 3 | average mortality rating ([10]; 50 ppm): 6 | average mortality rating ([10]; 100 ppm): 5 | average mortality rating ([11]; 25 ppm): 0 (0-10 percent) | average mortality rating ([11]; 50 ppm): 0 (0-10 percent) | average mortality rating ([11]; 100 ppm): 0 (0-10 percent) | average mortality rating ([12]; 10 ppm): 3 | average mortality rating ([12]; 25 ppm): 4 | average mortality rating ([12]; 50 ppm): 4 | average mortality rating ([13]; 25 ppm): 4 | average mortality rating ([13]; 50 ppm): 6 | average mortality rating ([13]; 100 ppm): 8 | average mortality rating ([14]; 0.03 μg/μl): 2 | average mortality rating ([14]; 0.07 μg/μl): 2 | average mortality rating ([14]; 0.1 μg/μl): 1 | insect mortality rating ([15]; .078125 μg/μl): 9 (91-100 percent mortality) | insect mortality rating [16]: 9 (91-100 percent mortality)

CCCCCCOC(=O)n1c(C(F)(F)F)nc2c([N+](=O)[O-])cc(C(F)(F)F)cc21 [E, n-hexyl 2,6-bis(trifluoromethyl)-4-nitro-1-benzimidazolecarboxylate]
mortality rating ([17]; 5 ppm): .5 | mortality rating ([17]; 10 ppm): 8.5 | mortality rating [18]: 8.5 | mortality rating ([1]; 25 ppm): 6.5 | average mortality rating ([2]; 125 ppm): 1 | average mortality rating ([2]; 250 ppm): 4 | average mortality rating ([2]; 500 ppm): 3 | average mortality rating ([3]; 25 ppm): 5 | average mortality rating ([3]; 50 ppm): 5 | average mortality rating ([3]; 100 ppm): 7 | average mortality rating ([4]; 25 ppm): 1 | average mortality rating ([4]; 50 ppm): 3 | average mortality rating ([4]; 100 ppm): 5 | average mortality rating ([5]; 25 ppm): 6 | average mortality rating ([5]; 50 ppm): 6 | average mortality rating ([5]; 100 ppm): 8 | average mortality rating ([6]; 5 ppm): 3 | average mortality rating ([6]; 10 ppm): 5 | average mortality rating ([6]; 25 ppm): 9 (91-100 percent mortality) | average mortality rating ([7]; 10 ppm): 1 | average mortality rating ([7]; 25 ppm): 2 | average mortality rating ([7]; 50 ppm): 3 | average mortality rating ([7]; 100 ppm): 1 | average mortality rating ([8]; 10 ppm): 9 (91-100 percent mortality) | average mortality rating ([8]; 25 ppm): 9 (91-100 percent mortality) | average mortality rating ([8]; 50 ppm): 7 | average mortality rating ([8]; 100 ppm): 8 | average mortality rating ([9]; 25 ppm): 5 | average mortality rating ([9]; 50 ppm): 5 | average mortality rating ([9]; 100 ppm): 5 | average mortality rating ([10]; 10 ppm): 3 | average mortality rating ([10]; 25 ppm): 1 | average mortality rating ([10]; 50 ppm): 5 | average mortality rating ([10]; 100 ppm): 5 | average mortality rating ([11]; 25 ppm): 0 (0-10 percent) | average mortality rating ([11]; 50 ppm): 0 (0-10 percent) | average mortality rating ([11]; 100 ppm): 8 | average mortality rating ([12]; 10 ppm): 3 | average mortality rating ([12]; 25 ppm): 8 | average mortality rating ([12]; 50 ppm): 7 | average mortality rating ([13]; 25 ppm): 4 | average mortality rating ([13]; 50 ppm): 9 (91-100 percent mortality) | average mortality rating ([13]; 100 ppm): 8 | average mortality rating ([14]; 0.03 μg/μl): 2 | average mortality rating ([14]; 0.07 μg/μl): 2 | average mortality rating ([14]; 0.1 μg/μl): 4 | insect mortality rating ([15]; .3125 μg/μl): 9 (91-100 percent mortality) | insect mortality rating [16]: 9 (91-100 percent mortality)
